# Measured values taken from ChEMBL document CHEMBL4808245, “Cytoprotective agent troxipide-cyanine dye conjugate with cytotoxic and antiproliferative activity in patient-derived glioblastoma cell lines” (Bioorg Med Chem Lett, 2021).
# Calls of active or inactive are those of the source. The rule behind the calls is not given here.
# What was measured:
# [1] = system: GBM; experiment: Cytotoxicity against patient derived human GBM cells assessed as reduction in total cell count measured after 96 hrs by Hoechst staining analysis; type: functional, cell-based
# [2] = system: U-87 MG; experiment: Synergistic cytotoxicity against human U-87MG cells assessed as combination index at 5 nM measured after 96 hrs by Hoechst staining based analysis; type: functional, U-87MG ATCC
# [3] = system: GBM; experiment: Synergistic cytotoxicity against patient derived human GBM cells assessed as combination index at 0.04 nM measured after 96 hrs in presence of TMZ by Hoechst staining based analysis; type: functional
# [4] = system: U-87 MG; experiment: Antagonistic cytotoxicity against human U-87MG cells assessed as combination index at 1 nM measured after 96 hrs in presence of TMZ by Hoechst staining based analysis; type: functional, U-87MG ATCC
# [5] = system: KNS-42; experiment: Synergistic cytotoxicity against human KNS-42 cells assessed as combination index at 800 nM measured after 96 hrs by Hoechst staining based analysis; type: functional
# [6] = system: GBM; experiment: Induction of apoptosis in patient derived human GBM cells assessed as increase in cleaved caspase-3 positive cells at IC50; type: functional, cell-based
# [7] = system: GBM; experiment: Synergistic cytotoxicity against patient derived human GBM cells assessed as combination index at 100000 nM measured after 96 hrs in presence of TMZ by Hoechst staining based analysis; type: functional
# [8] = system: KNS-42; experiment: Antagonistic cytotoxicity against human KNS-42 cells assessed as combination index at 0.04 nM measured after 96 hrs in presence of TMZ by Hoechst staining based analysis; type: functional
# [9] = system: U-87 MG; experiment: Synergistic cytotoxicity against human U-87MG cells assessed as combination index at 20000 nM measured after 96 hrs by Hoechst staining based analysis; type: functional, U-87MG ATCC
# [10] = system: U-87 MG; experiment: Synergistic cytotoxicity against human U-87MG cells assessed as combination index at 125 nM measured after 96 hrs by Hoechst staining based analysis; type: functional, U-87MG ATCC
# [11] = system: U-87 MG; experiment: Cytotoxicity against human U-87MG cells assessed as reduction in total cell count measured after 96 hrs in presence of TMZ by Hoechst staining analysis; type: functional, cell-based, U-87MG ATCC
# [12] = system: GBM; experiment: Synergistic cytotoxicity against patient derived human GBM cells assessed as combination index at 20000 nM measured after 96 hrs in presence of TMZ by Hoechst staining based analysis; type: functional
# [13] = system: U-87 MG; experiment: Synergistic cytotoxicity against human U-87MG cells assessed as combination index at 800 nM measured after 96 hrs by Hoechst staining based analysis; type: functional, U-87MG ATCC
# [14] = system: U-87 MG; experiment: Synergistic cytotoxicity against human U-87MG cells assessed as combination index at 100000 nM measured after 96 hrs by Hoechst staining based analysis; type: functional, U-87MG ATCC
# [15] = system: GBM; experiment: Synergistic cytotoxicity against patient derived human GBM cells assessed as combination index at 5 nM measured after 96 hrs in presence of TMZ by Hoechst staining based analysis; type: functional
# [16] = system: GBM; experiment: Synergistic cytotoxicity against patient derived human GBM cells assessed as combination index at 800 nM measured after 96 hrs in presence of TMZ by Hoechst staining based analysis; type: functional
# [17] = system: U-87 MG; experiment: Antagonistic cytotoxicity against human U-87MG cells assessed as combination index at 25 nM measured after 96 hrs in presence of TMZ by Hoechst staining based analysis; type: functional, U-87MG ATCC
# [18] = system: GBM; experiment: Antiproliferative activity against patient derived human GBM cells assessed as reduction in cell proliferation measured after 48 hrs in presence of TMZ by EdU-incorporation assay; type: functional, cell-based
# [19] = system: KNS-42; experiment: Synergistic cytotoxicity against human KNS-42 cells assessed as combination index at 0.2 nM measured after 96 hrs by Hoechst staining based analysis; type: functional
# [20] = system: U-87 MG; experiment: Synergistic cytotoxicity against human U-87MG cells assessed as combination index at 0.2 nM measured after 96 hrs by Hoechst staining based analysis; type: functional, U-87MG ATCC
# [21] = system: U-87 MG; experiment: Antagonistic cytotoxicity against human U-87MG cells assessed as combination index at 0.04 nM measured after 96 hrs in presence of TMZ by Hoechst staining based analysis; type: functional, U-87MG ATCC
# [22] = system: KNS-42; experiment: Antagonistic cytotoxicity against human KNS-42 cells assessed as combination index at 25 nM measured after 96 hrs in presence of TMZ by Hoechst staining based analysis; type: functional
# [23] = system: GBM; experiment: Synergistic cytotoxicity against patient derived human GBM cells assessed as combination index at 125 nM measured after 96 hrs in presence of TMZ by Hoechst staining based analysis; type: functional
# [24] = system: KNS-42; experiment: Antiproliferative activity against human KNS-42 cells assessed as reduction in cell proliferation measured after 48 hrs by EdU-incorporation assay; type: functional, cell-based; details: KNS-42, 48 h
# [25] = Cytotoxicity against primary brain pericytes (unknown origin); type: cell-based
# [26] = system: U-87 MG; experiment: Antiproliferative activity against human U-87MG cells assessed as reduction in cell proliferation measured after 48 hrs in presence of TMZ by EdU-incorporation assay; type: functional, cell-based, U-87MG ATCC
# [27] = Selectivity ratio of EC50 for cytotoxicity against primary brain pericytes (unknown origin) to EC50 for cytotoxicity against patient derived human GBM cells
# [28] = system: KNS-42; experiment: Synergistic cytotoxicity against human KNS-42 cells assessed as combination index at 20000 nM measured after 96 hrs by Hoechst staining based analysis; type: functional
# [29] = system: GBM; experiment: Synergistic cytotoxicity against patient derived human GBM cells assessed as combination index at 0.2 nM measured after 96 hrs in presence of TMZ by Hoechst staining based analysis; type: functional
# [30] = system: KNS-42; experiment: Synergistic cytotoxicity against human KNS-42 cells assessed as combination index at 4000 nM measured after 96 hrs by Hoechst staining based analysis; type: functional
# [31] = system: KNS-42; experiment: Cytotoxicity against human KNS-42 cells assessed as reduction in total cell count measured after 96 hrs by Hoechst staining analysis; type: functional, cell-based; details: KNS-42, 96 h
# [32] = system: U-87 MG; experiment: Cytotoxicity against human U-87MG cells assessed as reduction in total cell count measured after 96 hrs by Hoechst staining analysis; type: functional, cell-based, U-87MG ATCC
# [33] = system: GBM; experiment: Antiproliferative activity against patient derived human GBM cells assessed as reduction in cell proliferation measured after 48 hrs by EdU-incorporation assay; type: functional, cell-based
# [34] = system: KNS-42; experiment: Synergistic cytotoxicity against human KNS-42 cells assessed as combination index at 100000 nM measured after 96 hrs by Hoechst staining based analysis; type: functional
# [35] = system: GBM; experiment: Synergistic cytotoxicity against patient derived human GBM cells assessed as combination index at 1 nM measured after 96 hrs in presence of TMZ by Hoechst staining based analysis; type: functional
# [36] = system: GBM; experiment: Synergistic cytotoxicity against patient derived human GBM cells assessed as combination index at 4000 nM measured after 96 hrs in presence of TMZ by Hoechst staining based analysis; type: functional
# [37] = system: KNS-42; experiment: Antagonistic cytotoxicity against human KNS-42 cells assessed as combination index at 1 nM measured after 96 hrs in presence of TMZ by Hoechst staining based analysis; type: functional
# [38] = system: KNS-42; experiment: Synergistic cytotoxicity against human KNS-42 cells assessed as combination index at 5 nM measured after 96 hrs by Hoechst staining based analysis; type: functional
# [39] = system: KNS-42; experiment: Synergistic cytotoxicity against human KNS-42 cells assessed as combination index at 125 nM measured after 96 hrs by Hoechst staining based analysis; type: functional
# [40] = system: U-87 MG; experiment: Antiproliferative activity against human U-87MG cells assessed as reduction in cell proliferation measured after 48 hrs by EdU-incorporation assay; type: functional, cell-based, U-87MG ATCC
# [41] = system: GBM; experiment: Cytotoxicity against patient derived human GBM cells assessed as reduction in total cell count measured after 96 hrs in presence of TMZ by Hoechst staining analysis; type: functional, cell-based
# [42] = system: KNS-42; experiment: Antiproliferative activity against human KNS-42 cells assessed as reduction in cell proliferation measured after 48 hrs in presence of TMZ by EdU-incorporation assay; type: functional, cell-based; details: KNS-42, 48 h
# [43] = system: U-87 MG; experiment: Synergistic cytotoxicity against human U-87MG cells assessed as combination index at 4000 nM measured after 96 hrs by Hoechst staining based analysis; type: functional, U-87MG ATCC
# [44] = system: KNS-42; experiment: Cytotoxicity against human KNS-42 cells assessed as reduction in total cell count measured after 96 hrs in presence of TMZ by Hoechst staining based analysis; type: functional; details: KNS-42, 96 h
# [45] = system: GBM; experiment: Synergistic cytotoxicity against patient derived human GBM cells assessed as combination index at 25 nM measured after 96 hrs in presence of TMZ by Hoechst staining based analysis; type: functional
compound,measurement,setting,value
COc1cc(C(=O)NC2CCCN(C(=O)CCCCCN3/C(=C/C=C4\CCCC(/C=C/C5=[N+](CCCCCC(=O)N6CCCC(NC(=O)c7cc(OC)c(OC)c(OC)c7)C6)c6ccccc6C5(C)C)=C4Cl)C(C)(C)c4ccccc43)C2)cc(OC)c1OC.[Br-] (stereo not given),EC50,[1],211 nM
same,CI,[2],0.134
same,CI,[3],0.323
same,CI,[4],3.406
same,CI,[5],0.067
same,Activity,[6],Active
same,CI,[7],0.248
same,CI,[8],5.672
same,CI,[9],0.052
same,CI,[10],0.268
same,EC50,[11],108 nM
same,CI,[12],0.526
same,CI,[13],0.067
same,CI,[14],0.05
same,CI,[15],0.551
same,CI,[16],0.287
same,CI,[17],3.837
same,IC50,[18],110 nM
same,CI,[19],0.016
same,CI,[20],0.016
same,CI,[21],5.672
same,CI,[22],3.837
same,CI,[23],0.571
same,IC50,[24],504 nM
same,EC50,[25],3600 nM
same,IC50,[26],194 nM
same,Ratio EC50,[27],19
same,CI,[28],0.052
same,CI,[29],0.025
same,CI,[30],0.116
same,EC50,[31],394 nM
same,EC50,[32],394 nM
same,IC50,[33],164 nM
same,CI,[34],0.05
same,CI,[35],0.301
same,CI,[36],0.536
same,CI,[37],3.406
same,CI,[38],0.134
same,CI,[39],0.268
same,IC50,[40],504 nM
same,EC50,[41],90 nM
same,IC50,[42],194 nM
same,CI,[43],0.116
same,EC50,[44],108 nM
same,CI,[45],0.506
